Assay results from US4716222A, “Substrates for hydrolases” (Hoechst Aktiengesellschaft, priority 1984, dated 1987).

How the values were obtained:
leukocyte esterase = assay: Determination of leukocyte esterase with test strips; type: biochemical; conditions: test strips immersed in leukocyte suspensions
Protocol: Indicator paper No. 218 supplied by Macherey-Nage, Dueren, Federal Republic of Germany, was impregnated successively with the following solutions and was dried:
(a) aqueous boric acid buffer 0.25 mol/l, pH 8
(b) tosylalanylresorufin 0.25 g dissolved in 1 l of ethyl acetate.
The drying temperature selected for solution (a) was about 80° C. and that for (b) was about 120° C. The samples used were suspensions containing various concentrations of leukocytes, into which the test strips were briefly immersed. After about 1 minute a red-violet color developed, the intensity of which depended on the concentration of leukocytes. The detection sensitivity of this test system is about 1000 leukocytes per microliter.

α-glucosidase = assay: Kinetic determination of α-glucosidase activity in human urine; type: biochemical
Excerpt: The activity of α-glucosidase in human urine can be determined very sensitively in a kinetic test with the new substrate 2H-7-0-(α-D-glucopyranosyl)-4-methyl-8-nitrobenzopyran-2-one (compound S1, see Example 1). Since the pH optimum of α-glucosidase is 4 to 6, the activity cannot be measured kinetically with the hitherto customary substrate p-nitrophenyl α-glucopyranoside because the released nitrophenol has only a very low extinction at 405 nm (Table 1).
In contrast, with compound S1 as substrate an absorbance difference in normal human urine of 0,040 per minute could be measured in a kinetic test, and thus the automation of this determination is possible.
A further possibility for the kinetic determination of α-glucosidase activity is the use of 3-H-7-O-(α-glucopyranosyl)phenoxazin-3-one (resorufin-α-D-glucopyranoside). […] At 37°, using 400 μl reagent and 200 μl urine an absorbance difference of 0.136 α per minute was found.

β-glucosidase = assay: Specificity check with purified β-glucosidase; type: biochemical
β-galactosidase [1] = assay: Cleavage of the substrate by β-galactosidase (specificity); type: biochemical
Protocol: (§1) The activity of the β-galactosidase in human urine could be kinetically determined by the use of 3-O-([…])-3-hydroxy-2-nitropyridine. For this purpose 0.2 ml of 10-fold concentrated normal urine was added to 1 ml of buffered substrate solution and the extinction change recorded at 405 nm and 22° C. Under these conditions an extinction difference of 1.2 mE/min was measured.
(§2) The β-galactosidase activity could be kinetically measured in human urine by the use of 2H-7-O-(β-D-galactopyranosyl)-4-methyl-8-nitrobenzopyran-2-one (compound S15). An extinction change of 4 mE/min was recorded at 23° C. and 366 nm with the use of 200 μl of buffered substrate solution and 200 μl of urine of normal concentration. […] Also, β-galactosidase in human urine could be kinetically determined by using resorufin-β-D-galactopyranoside (compound S6). […] The activity of β-glucuronidase in human urine could be kinetically measured with 2H-7-O-(β-D-glucuronopyranosyl)-4-methyl-8-nitrobenzopyran-2-one (compound S9).

β-galactosidase [2] = target: T1, β-galactosidase (Homo sapiens, UniProt P06280); assay: Kinetic determination of galactosidase in human urine with the α-D-galactopyranosyl nitropyridine substrate; type: biochemical; conditions: 0.2 ml 10-fold concentrated normal urine + 1 ml buffered substrate solution, 405 nm, 22° C.
T1 construct: from tissue; host or cells: human urine, 10-fold concentrated
T1 sequence (P06280 32-429): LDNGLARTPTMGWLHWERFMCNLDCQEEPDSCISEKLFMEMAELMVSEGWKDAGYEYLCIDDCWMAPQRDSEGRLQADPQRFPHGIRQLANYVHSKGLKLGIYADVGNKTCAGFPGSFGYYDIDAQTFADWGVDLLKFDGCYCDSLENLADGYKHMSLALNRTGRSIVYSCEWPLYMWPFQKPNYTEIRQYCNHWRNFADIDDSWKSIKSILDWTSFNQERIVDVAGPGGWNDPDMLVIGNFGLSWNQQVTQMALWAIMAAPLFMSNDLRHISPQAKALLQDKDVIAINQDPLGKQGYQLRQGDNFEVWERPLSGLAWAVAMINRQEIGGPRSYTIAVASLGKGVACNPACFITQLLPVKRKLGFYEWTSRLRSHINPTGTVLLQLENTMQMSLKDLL
Protocol: as §1

β-galactosidase [3] = target: T2, β-galactosidase (Homo sapiens, UniProt P16278); assay: Kinetic determination of β-galactosidase activity in human urine; type: biochemical
T2 construct: from tissue; host or cells: human urine
T2 sequence (P16278 29-677): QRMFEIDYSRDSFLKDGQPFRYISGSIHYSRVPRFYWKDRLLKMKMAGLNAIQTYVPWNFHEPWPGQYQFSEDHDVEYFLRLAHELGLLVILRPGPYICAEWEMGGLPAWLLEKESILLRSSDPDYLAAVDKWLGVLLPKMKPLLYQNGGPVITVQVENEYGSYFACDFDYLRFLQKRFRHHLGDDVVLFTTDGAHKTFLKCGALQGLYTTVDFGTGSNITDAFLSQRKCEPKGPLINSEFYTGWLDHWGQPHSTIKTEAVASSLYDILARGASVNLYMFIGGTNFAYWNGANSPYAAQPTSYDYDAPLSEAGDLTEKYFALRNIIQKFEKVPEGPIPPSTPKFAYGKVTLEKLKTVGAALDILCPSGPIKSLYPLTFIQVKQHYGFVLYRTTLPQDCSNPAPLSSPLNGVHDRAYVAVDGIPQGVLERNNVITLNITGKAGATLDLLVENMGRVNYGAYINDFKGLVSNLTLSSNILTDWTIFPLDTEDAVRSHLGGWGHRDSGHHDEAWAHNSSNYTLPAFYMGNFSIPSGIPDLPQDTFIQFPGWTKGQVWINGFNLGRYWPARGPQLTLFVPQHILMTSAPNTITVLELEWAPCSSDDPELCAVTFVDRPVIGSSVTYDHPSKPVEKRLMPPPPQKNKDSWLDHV
Protocol: as §2

IgE = assay: Determination of IgE with a state of the art enzyme immunoassay; conditions: same incubation periods
Protocol: A substantial increase in sensitivity could be achieved using the new substrates in an enzyme immunoassay of the state of the art. In this assay the IgE concentration is determined, as a measure of an allergy by means of the indirect antibody technique. With the same incubation periods for the different substrates, an approximately 4.3-fold higher absorbance for resorufin-β-galactoside (compound S6) and an approximately 1.7-fold higher absorbance for 3-hydroxy-2-nitropyridine-β-galacto-side was measured than for the commercially available o-nitrophenyl-β-galactoside.

N-acetylglucosaminidase = target: T3, N-acetylglucosaminidase (Homo sapiens, UniProt P06865+P07686); assay: Kinetic determination of N-acetylglucosaminidase activity in human urine; type: biochemical; conditions: 365 nm, 10-fold concentrated normal urine
T3 construct: from tissue; host or cells: human urine, 10-fold concentrated
T3 sequence (P07686 122-556): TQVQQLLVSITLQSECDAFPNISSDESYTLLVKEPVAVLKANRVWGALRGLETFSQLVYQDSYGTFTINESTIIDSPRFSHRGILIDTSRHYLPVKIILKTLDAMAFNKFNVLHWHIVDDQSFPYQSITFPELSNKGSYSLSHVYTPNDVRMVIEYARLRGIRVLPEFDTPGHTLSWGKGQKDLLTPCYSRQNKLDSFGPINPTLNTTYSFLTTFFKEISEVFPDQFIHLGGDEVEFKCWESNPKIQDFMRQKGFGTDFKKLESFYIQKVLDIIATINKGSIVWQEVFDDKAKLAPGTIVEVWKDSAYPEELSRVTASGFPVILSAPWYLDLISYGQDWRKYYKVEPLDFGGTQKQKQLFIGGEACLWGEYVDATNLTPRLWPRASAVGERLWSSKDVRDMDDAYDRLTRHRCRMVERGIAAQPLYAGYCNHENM
T3 sequence (P06865 89-529): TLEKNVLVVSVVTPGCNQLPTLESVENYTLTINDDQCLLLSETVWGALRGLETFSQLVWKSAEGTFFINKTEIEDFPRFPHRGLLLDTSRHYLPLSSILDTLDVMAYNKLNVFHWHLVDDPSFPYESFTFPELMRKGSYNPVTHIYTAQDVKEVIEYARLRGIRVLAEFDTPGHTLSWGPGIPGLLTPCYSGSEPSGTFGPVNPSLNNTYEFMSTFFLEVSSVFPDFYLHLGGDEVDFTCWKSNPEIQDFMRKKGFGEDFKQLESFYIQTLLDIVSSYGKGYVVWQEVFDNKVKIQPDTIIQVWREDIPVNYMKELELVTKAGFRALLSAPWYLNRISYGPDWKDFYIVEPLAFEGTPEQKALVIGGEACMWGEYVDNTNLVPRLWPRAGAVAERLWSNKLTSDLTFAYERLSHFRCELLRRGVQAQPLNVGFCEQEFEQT
Protocol: The activity in human urine (10-fold concentrated) can also be kinetically determined with S8. The determination with 0.5 buffered substrate solution and 0.1 ml 10-fold concentrated normal urine at 37° C. and 365 nm gave an absorbance change of 0,023 A/min at pH 5.5 and of 0,014 A/min at pH 4.5.

[4] = tested on: N-acetyl-β-glucosaminidase; assay: Determination of N-acetylglucosaminidase (enzyme from ox kidney); type: biochemical
Protocol: The sensitivity of the substrates p-nitrophenyl N-acetylaminoglucoside and 2H-7-O-(2-acetamido-2-deoxy-D-glucopyranosyl)-4-methyl-8-nitrobenzopyran-2-one ([…]) were compared to each other using N-acetyl-β-glucosaminidase from ox kidney. To 0.5 ml of substrate solution was added 0.1 ml of an enzyme solution diluted 1:101 (Sigma) and the absorbance change determined at 22° C. and 405 or 365 nm.

β-glucuronidase = target: T4, β-glucuronidase (Homo sapiens, UniProt P08236); assay: Determination of β-glucuronidase in human urine; type: biochemical; conditions: human urine concentrate, pH 5, 30° C., 366 nm
T4 construct: from tissue; host or cells: human urine concentrate
T4 sequence (P08236 23-651): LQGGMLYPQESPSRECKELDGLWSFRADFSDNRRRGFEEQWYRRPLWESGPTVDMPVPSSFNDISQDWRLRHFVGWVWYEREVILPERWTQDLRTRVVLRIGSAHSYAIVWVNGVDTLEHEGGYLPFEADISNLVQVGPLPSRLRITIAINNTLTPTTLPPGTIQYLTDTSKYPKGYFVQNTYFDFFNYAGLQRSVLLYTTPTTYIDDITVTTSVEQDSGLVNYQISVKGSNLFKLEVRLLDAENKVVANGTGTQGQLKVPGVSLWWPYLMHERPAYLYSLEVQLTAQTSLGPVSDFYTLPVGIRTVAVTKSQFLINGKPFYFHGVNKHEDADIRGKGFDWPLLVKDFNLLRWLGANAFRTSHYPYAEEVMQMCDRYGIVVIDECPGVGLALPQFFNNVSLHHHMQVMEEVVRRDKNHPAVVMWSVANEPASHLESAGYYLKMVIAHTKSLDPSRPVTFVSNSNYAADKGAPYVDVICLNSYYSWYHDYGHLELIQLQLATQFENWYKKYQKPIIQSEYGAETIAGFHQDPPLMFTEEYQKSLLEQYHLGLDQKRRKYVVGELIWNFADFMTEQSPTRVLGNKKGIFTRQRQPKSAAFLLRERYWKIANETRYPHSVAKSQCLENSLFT
Protocol: as §2
In this case, 0.1 ml of urine concentrate was added to 0.6 ml of buffered substrate solution and the activity recorded at pH 5, 30° C. and 366 nm. Under these conditions an absorbance difference of 0,014 A/min was measured. Consequently the determination is many times more sensitive than with the customary p-nitrophenyl substrate (Table 4).

SMILES: CC(C)C[C@H](NC(=O)OC(C)(C)C)C(=O)Oc1ccc2nc3ccc(=O)cc-3oc2c1 [Boc-Leu-resorufin]
- detection sensitivity (leukocyte esterase): 2000 leukocytes per microliter

SMILES: Cc1cc(=O)oc2c([N+](=O)[O-])c(O[C@H]3O[C@H](CO)[C@@H](O)[C@H](O)[C@H]3O)ccc12 [compound S1, 2H-7-O-(α-D-Glucopyranosyl)-4-methyl-8-nitrobenzopyran-2-one]
- absorbance difference per minute (α-glucosidase; normal human urine, kinetic test): 0,040 per minute
- cleavage by β-glucosidase / specificity for α-glucosidase (β-glucosidase): not cleaved by β-glucosidase

SMILES: O=[N+]([O-])c1ncccc1O[C@H]1O[C@H](CO)[C@H](O)[C@H](O)[C@H]1O [compound S3, 3-O-(α-D-Galactopyranosyl)-2-nitropyridine]
- cleavage by β-galactosidase (β-galactosidase [1]): not cleaved by β-galactosidase
- extinction difference (β-galactosidase [2]): 1.2 mE/min

SMILES: O=c1ccc2nc3ccc(O[C@@H]4O[C@H](CO)[C@H](O)[C@H](O)[C@H]4O)cc3oc-2c1 [compound S6, Resorufin-8-β-D-galactopyranoside]
- absorbance change (β-galactosidase [3]; 578 nm, 37° C., human urine): 0,0038 A/min
- absorbance change (IgE; measuring wavelength 576 nm, same sample): 0.761
- fold higher absorbance than o-nitrophenyl-β-galactoside (IgE): approximately 4.3 fold

SMILES: CC(=O)N[C@H]1[C@H](Oc2ccc3c(C)cc(=O)oc3c2[N+](=O)[O-])O[C@H](CO)[C@@H](O)[C@@H]1O [compound S8]
- absorbance change (N-acetylglucosaminidase; pH 4.5, 37° C.): 0,014 A/min
- absorbance change (N-acetylglucosaminidase; pH 5.5, 37° C.): 0,023 A/min
- absorbance change, fold greater than with p-nitrophenyl acetylaminoglucoside ([4]; pH 4.5): ~36 fold
- delta A/min ([4]; pH 4.5, 22° C., 405 or 365 nm, enzyme solution diluted 1:101): 0.266 A/min

SMILES: Cc1cc(=O)oc2c([N+](=O)[O-])c(O[C@@H]3O[C@H](C(=O)O)[C@@H](O)[C@H](O)[C@H]3O)ccc12 [compound S9, 2H-7-O-(1-β-D-Glucuronopyranosyl)-4-methyl-8-nitrobenzopyran-2-one]
- delta A/min (β-glucuronidase): 0,014 A/min

SMILES: Cc1cc(=O)oc2c([N+](=O)[O-])c(O[C@@H]3O[C@H](CO)[C@H](O)[C@H](O)[C@H]3O)ccc12 [compound S15, 2H-7-O-(β-Galactopyranosyl)-4-methyl-8-nitrobenzopyran-2-one]
- extinction change (β-galactosidase [3]; 23° C., 366 nm, 200 μl buffered substrate solution + 200 μl urine of normal concentration): 4 mE/min
- cleavage by β-galactosidase (β-galactosidase [1]): not cleaved by β-galactosidase

SMILES: O=c1ccc2nc3ccc(O[C@H]4O[C@H](CO)[C@@H](O)[C@H](O)[C@H]4O)cc3oc-2c1 [resorufin-α-D-glucopyranoside, 3-H-7-O-(α-glucopyranosyl)phenoxazin-3-one]
- absorbance difference per minute (α-glucosidase; 37°, 400 μl reagent and 200 μl urine, 578 nm, pH 6): 0.136 per minute
- cleavage by β-glucosidase / specificity for α-glucosidase (β-glucosidase): specific substrate for α-glucosidase

SMILES: Cc1ccc(S(=O)(=O)N[C@@H](C)C(=O)Oc2ccc3nc4ccc(=O)cc-4oc3c2)cc1 [tosylalanylresorufin]
- detection sensitivity (leukocyte esterase): about 1000 leukocytes per microliter
